The record followed here is US20100062462A1, “IMMUNODEFICIENCY VIRUSES” (priority 2005, published 2010).

In one assay the target is T1, HIV protease (Human immunodeficiency virus type 1 group M subtype B, UniProt P04585).
T1 construct: Jurkat T cells were transfected with 1 μg of pEYFP-protease per 10^7 cells; EYFP; expressed in transfected cells; host or cells: Jurkat T cells
In words: casp8p41 production in Jurkat T cells transfected with HIV protease, flow cytometry. The following applies: Jurkat T cells transfected with pEYFP-protease; 7 μM Nelfinavir or 20 μM Z-VAD-fmk added immediately following transfection; assessed the following morning. It counts as cell-based. The protocol: To determine whether casp8p41 is produced specifically as a consequence of HIV-PR activity, as opposed to being produced as a consequence of apoptotic processing of procaspase 8, casp8p41 expression was assessed following HIV-PR transfection in the presence or absence of HIV-PR inhibitor, Nelfinavir, or the pan-caspase inhibitor, z-VAD-fmk. Jurkat T cells were transfected with 1 μg of pEYFP-protease per 10^7 cells using a square wave electroporator (BTX) at 320 V for 10 msec. Immediately following transfection, 7 μM Nelfinavir or 20 μM Z-VAD-fmk was added. The following morning, casp8p41 was assessed by flow cytometry.

Another assay deals with Jurkat T cells. In words: active caspase-3 and casp8p41 in Jurkat T cells treated with apoptotic stimuli, flow cytometry. It counts as cell-based. To be noted: for casp8p41 immunoreactivity: same stimuli, 10 μM campothecin for 8 hours; for apoptosis, as determined by activation of caspase-3: 50 ng/mL TNF-α plus 5 μg/mL cycloheximide, 100 ng/mL SuperKillerTRAIL, 250 ng/mL anti-Fas CH-11, 2 μM Tat, 1 μg/mL gp120 for 8 hours, 10 μM Vpr-derived peptide 4 hours. Here is the method: It was determined whether casp8p41 is generated in response to other apoptotic stimuli. Jurkat T cells (10^6) were treated with 10 μM campothecin, 100 ng/mL SuperKillerTRAIL™ (Axxora), 250 ng/mL anti-Fas antibody CH-11 (Upstate Cell Signaling Solutions), 50 ng/mL TNF-α (R&D Systems) plus 5 μg/mL cycloheximide, 2 μM HIV Tat (NIH AIDS Research and Reference Reagent Program), 1 μg/mL of HIV gp120 (ImmunoDiagnostic), or vehicle controls for 8 hours at 37° C. For Vpr-induced apoptosis, Jurkat T cells were incubated with isotonic glucose-Hepes buffer (2.4% glucose, 13 mM Hepes, 68 mM NaCl, 1.3 mM KCl, 4 mM Na2HPO4, and 0.7 mM KH2PO4, pH 7.2) alone or containing 10 μM of Vpr-derived peptide (amino acids 61-75; NIH AIDS Research and Reference Reagent Program) for 4 hours at 37° C. After the incubation, cells were washed in PBS and incubated overnight at 37° C. After incubation for the indicated times, cells were fixed in 2% paraformaldehyde at 4° C. overnight. To determine the presence of casp8p41 on apoptotic cells, cells were permeabilized with PBS+0.1% NP-40 on ice for two minutes. Cells were then incubated with the mouse anti-casp8p41 antibody, followed by PE-labeled goat anti-mouse antibody (Becton Dickinson ImmunoCytochemistry) and FITC-labeled rabbit anti-active caspase-3 antibody.

Consider Z-VAD-fmk, for which the casp8p41 production entry on HIV protease is “did not alter casp8p41 production”. As for `CC[C@@]1(O)C(=O)OCc2c1cc1n(c2=O)Cc2cc3ccccc3nc2-1` [campothecin], the casp8p41 immunoreactivity result with Jurkat T cells is “casp8p41 was not produced”. For the compound `Cc1c(O)cccc1C(=O)N[C@@H](CSc1ccccc1)[C@H](O)CN1C[C@H]2CCCC[C@H]2C[C@H]1C(=O)NC(C)(C)C` [Nelfinavir], the casp8p41 production entry on HIV protease is “abrogated casp8p41 production”. As to TNF-α, in the assay with Jurkat T cells, the “apoptosis, as determined by activation of caspase-3” value is “did indeed induce apoptosis” and the casp8p41 immunoreactivity result is given as “did not generate casp8p41 immunoreactivity”. For TRAIL the same measures were “did indeed induce apoptosis” and “did not generate casp8p41 immunoreactivity”.
